Laboratory results as given in ChEMBL document CHEMBL5226348, “Recent Progress of Small Molecule Menin-MLL Interaction Inhibitors as Therapeutic Agents for Acute Leukemia” (J Med Chem, 2021).

Columns and labels:
MV4-11 = assay: Antiproliferative activity against human MV4-11 cells; assay type: functional
[1] = Oral bioavailability in mouse; assay type: ADME, organism-based; conditions: in vivo
[2] = target: T1, Menin/Histone-lysine N-methyltransferase MLL (Homo sapiens, UniProt O00255); assay: Inhibition of human Menin to MLL protein-protein interaction; assay type: protein assay
T1 sequence (O00255 whole entry): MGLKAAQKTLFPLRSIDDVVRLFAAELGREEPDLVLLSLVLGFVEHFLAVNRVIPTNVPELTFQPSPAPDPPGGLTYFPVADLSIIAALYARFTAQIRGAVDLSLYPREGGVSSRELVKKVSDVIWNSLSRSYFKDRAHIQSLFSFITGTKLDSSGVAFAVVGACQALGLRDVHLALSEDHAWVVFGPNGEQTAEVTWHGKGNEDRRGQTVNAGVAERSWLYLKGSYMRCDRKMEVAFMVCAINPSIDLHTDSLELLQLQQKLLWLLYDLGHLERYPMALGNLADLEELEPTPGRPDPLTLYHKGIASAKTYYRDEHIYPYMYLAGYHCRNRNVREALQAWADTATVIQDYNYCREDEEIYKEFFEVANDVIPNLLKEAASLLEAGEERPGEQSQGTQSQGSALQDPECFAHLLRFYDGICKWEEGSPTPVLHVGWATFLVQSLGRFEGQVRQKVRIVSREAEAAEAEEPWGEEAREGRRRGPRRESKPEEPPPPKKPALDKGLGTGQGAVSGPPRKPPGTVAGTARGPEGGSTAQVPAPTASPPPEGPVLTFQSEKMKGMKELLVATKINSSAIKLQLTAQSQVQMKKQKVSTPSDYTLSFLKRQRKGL
T1 sequence (Q03164 1-2718 partner limits assumed): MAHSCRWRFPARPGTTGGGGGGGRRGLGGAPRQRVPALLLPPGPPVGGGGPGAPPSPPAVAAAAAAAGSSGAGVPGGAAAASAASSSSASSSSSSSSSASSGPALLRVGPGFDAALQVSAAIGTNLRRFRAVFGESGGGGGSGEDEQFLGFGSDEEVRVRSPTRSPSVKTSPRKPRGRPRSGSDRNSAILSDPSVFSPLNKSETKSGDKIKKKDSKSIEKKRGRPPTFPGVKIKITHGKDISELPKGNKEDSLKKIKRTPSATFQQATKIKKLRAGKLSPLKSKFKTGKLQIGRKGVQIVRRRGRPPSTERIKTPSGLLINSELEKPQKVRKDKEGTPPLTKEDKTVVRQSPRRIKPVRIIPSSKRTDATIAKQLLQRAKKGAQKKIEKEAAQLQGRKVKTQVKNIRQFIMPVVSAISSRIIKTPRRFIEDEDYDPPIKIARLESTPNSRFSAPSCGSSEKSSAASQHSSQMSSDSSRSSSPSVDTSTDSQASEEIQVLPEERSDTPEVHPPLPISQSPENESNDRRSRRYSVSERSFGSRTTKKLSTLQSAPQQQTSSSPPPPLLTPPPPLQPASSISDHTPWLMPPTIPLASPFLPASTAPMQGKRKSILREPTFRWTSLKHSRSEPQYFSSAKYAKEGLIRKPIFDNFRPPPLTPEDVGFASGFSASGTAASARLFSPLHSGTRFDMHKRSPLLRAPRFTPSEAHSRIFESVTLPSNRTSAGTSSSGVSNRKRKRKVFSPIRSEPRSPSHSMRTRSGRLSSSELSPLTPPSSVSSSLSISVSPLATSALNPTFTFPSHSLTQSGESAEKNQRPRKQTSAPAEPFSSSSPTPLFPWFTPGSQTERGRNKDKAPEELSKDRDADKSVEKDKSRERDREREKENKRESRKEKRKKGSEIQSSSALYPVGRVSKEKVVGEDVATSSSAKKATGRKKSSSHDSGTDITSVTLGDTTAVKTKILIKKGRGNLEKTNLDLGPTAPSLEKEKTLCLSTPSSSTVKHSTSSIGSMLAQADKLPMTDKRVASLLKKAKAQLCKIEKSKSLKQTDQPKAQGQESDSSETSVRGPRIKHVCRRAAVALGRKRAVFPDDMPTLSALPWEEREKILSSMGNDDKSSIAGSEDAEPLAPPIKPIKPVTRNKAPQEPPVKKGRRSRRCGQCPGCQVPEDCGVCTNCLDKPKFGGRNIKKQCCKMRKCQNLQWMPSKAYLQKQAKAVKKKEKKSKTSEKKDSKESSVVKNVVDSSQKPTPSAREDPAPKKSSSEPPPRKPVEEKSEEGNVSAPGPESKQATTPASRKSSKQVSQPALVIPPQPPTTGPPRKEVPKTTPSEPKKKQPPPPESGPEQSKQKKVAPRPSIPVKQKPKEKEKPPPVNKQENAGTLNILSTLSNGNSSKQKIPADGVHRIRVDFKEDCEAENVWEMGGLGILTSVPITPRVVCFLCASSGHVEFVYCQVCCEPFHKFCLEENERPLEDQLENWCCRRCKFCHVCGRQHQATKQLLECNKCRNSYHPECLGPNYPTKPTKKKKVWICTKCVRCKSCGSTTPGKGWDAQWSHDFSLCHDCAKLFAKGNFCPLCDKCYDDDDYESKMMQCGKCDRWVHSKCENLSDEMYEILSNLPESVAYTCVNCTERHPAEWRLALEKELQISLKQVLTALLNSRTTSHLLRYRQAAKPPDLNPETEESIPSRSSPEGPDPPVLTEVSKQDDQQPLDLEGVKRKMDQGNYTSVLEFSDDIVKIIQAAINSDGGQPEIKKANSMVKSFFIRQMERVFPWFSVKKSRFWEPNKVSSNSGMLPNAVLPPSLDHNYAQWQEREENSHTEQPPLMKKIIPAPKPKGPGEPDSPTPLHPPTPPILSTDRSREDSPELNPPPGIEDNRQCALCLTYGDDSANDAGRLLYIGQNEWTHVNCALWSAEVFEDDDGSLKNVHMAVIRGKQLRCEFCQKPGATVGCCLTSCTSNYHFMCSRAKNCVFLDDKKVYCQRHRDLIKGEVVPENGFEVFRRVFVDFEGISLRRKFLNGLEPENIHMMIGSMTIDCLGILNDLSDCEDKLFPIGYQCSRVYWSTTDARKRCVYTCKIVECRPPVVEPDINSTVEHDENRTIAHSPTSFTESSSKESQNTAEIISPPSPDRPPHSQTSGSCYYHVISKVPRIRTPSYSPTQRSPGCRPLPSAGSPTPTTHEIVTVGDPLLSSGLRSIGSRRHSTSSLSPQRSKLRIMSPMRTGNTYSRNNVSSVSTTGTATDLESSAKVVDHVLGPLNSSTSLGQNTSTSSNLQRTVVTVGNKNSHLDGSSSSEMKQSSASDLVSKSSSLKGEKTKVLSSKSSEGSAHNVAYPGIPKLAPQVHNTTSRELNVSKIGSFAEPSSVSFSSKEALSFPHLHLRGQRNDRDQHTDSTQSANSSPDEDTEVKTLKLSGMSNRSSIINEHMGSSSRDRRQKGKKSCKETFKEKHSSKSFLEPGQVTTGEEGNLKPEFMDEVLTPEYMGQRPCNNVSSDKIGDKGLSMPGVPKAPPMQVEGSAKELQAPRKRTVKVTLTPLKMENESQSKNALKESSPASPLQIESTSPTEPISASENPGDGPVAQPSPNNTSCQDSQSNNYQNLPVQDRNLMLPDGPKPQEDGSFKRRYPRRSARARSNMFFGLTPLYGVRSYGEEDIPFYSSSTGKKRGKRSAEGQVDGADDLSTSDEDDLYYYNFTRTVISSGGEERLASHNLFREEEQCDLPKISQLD
T1 sequence (Q03164 2719-3969 partner limits assumed): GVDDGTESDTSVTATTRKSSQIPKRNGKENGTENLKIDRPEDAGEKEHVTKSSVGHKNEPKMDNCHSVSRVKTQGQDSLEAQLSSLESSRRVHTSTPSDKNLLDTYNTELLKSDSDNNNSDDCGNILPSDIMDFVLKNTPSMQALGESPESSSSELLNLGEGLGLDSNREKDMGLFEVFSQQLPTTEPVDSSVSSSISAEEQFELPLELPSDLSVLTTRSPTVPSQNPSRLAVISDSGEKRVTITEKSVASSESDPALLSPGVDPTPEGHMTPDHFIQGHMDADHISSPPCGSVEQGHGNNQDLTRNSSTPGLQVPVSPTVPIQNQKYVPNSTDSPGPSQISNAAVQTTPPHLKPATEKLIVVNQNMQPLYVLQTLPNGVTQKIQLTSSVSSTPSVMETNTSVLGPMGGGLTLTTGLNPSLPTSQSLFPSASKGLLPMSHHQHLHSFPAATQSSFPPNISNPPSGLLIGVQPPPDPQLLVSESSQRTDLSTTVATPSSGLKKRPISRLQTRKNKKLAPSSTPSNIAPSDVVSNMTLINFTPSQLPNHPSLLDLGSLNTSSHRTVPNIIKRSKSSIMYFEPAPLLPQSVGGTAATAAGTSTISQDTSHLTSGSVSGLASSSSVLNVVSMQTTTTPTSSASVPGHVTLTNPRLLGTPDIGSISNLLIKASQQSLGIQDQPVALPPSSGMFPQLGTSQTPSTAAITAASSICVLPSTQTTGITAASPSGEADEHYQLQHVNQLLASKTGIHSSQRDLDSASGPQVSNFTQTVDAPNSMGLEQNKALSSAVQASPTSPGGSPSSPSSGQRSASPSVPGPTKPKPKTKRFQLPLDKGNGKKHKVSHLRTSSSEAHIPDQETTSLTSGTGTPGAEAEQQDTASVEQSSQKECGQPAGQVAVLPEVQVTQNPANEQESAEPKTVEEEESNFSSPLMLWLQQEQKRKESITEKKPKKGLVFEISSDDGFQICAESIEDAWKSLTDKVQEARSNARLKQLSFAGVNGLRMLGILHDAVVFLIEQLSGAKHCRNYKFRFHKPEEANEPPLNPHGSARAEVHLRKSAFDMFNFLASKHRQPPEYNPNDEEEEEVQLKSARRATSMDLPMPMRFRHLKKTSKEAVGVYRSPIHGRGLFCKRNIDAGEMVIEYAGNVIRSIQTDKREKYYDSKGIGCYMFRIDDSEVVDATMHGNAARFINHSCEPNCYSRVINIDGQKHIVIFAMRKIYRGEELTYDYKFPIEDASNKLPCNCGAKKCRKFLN

MOLM-13 = assay: Antiproliferative activity against human MOLM-13 cells; assay type: functional
[3] = target: T1, Menin/Histone-lysine N-methyltransferase MLL; assay: Inhibition of Menin to MLL (unknown origin) protein-protein interaction; assay type: protein assay

Row | SMILES | GI50 (MV4-11) [nM] | IC50 [2] [nM] | GI50 (MOLM-13) [nM] | IC50 [3] [nM] | other results
1 | CCCc1cc2c(N3CCN(C4=NCC(C)(C)S4)CC3)ncnc2s1 | 9500 | – | – | – | –
2 | Cc1c(CN2CCC(Nc3ncnc4sc(CC(F)(F)F)cc34)CC2)ccc2c1cc(C#N)n2Cc1cn[nH]c1 | – | – | – | – | bioavailability [1]: 73%
3 | Cc1c(CN2CCC(Nc3ncnc4sc(CC(F)(F)F)cc34)CC2)ccc2[nH]c(C#N)cc12 | – | – | – | – | bioavailability [1]: 44%
4 | NCC(CCN1CC=C(c2ccc(Cl)cc2)CC1)(c1ccccc1)C1CCCC1 (stereo not given) | – | 0.83 | – | – | –
5 | COC(=O)N[C@H]1CCC[C@@H]1[C@](C#N)(c1cccc(F)c1)C1CCN(CC2CN(c3ccc(S(=O)(=O)C4CN(C(=O)/C=C/CN(C)C)C4)cc3)C2)CC1 | 2.7 | – | 15.4 | – | –
6 | CC(C)N(C(=O)c1cc(F)ccc1Oc1cncnc1N1CC2(CCN(C[C@H]3CC[C@H](NS(C)(=O)=O)CC3)CC2)C1)C(C)C | 17 | – | 13 | 40000 | –
7 | CNc1nc(NC2CCN(Cc3ccc4c(cc(C#N)n4CC45CC(NC=O)(C4)C5)c3C)CC2)c2cc(CC(F)(F)F)sc2n1 | 7.6 | 0.5 | 12.5 | – | –
8 | O=c1cccc2n1C[C@@H]1C[C@H]2CN(CC(O)CSCc2ccccc2)C1 (stereo not given in full) | – | – | – | 40 | –
9 | Clc1ccc2c(NCCN3CCN(CCCCCCCN4CCN(CCNc5ccnc6cc(Cl)ccc56)CC4)CC3)ccnc2c1 | – | 4.7 | – | – | –
10 | C[C@@]12CN(CC(O)CCCc3ccccc3)C[C@@](C)(C1)c1cccc(=O)n1C2 (stereo not given in full) | – | – | – | 1 | –
